Patent publication US20150031674A1, “SERINE/THREONINE KINASE INHIBITORS” (GENENTECH, INC., priority 2013, published 2015)

Biological target: human recombinant PAK1-KD protein (Homo sapiens, UniProt Q13153)
Assay: PAK1-KD (Kinase Domain) IC50 Zlyte Assay (FRET peptide substrate phosphorylation)
Details: Z'-LYTE, Biological Example 1

Chain of human recombinant PAK1-KD protein (Q13153 270-521 limits assumed): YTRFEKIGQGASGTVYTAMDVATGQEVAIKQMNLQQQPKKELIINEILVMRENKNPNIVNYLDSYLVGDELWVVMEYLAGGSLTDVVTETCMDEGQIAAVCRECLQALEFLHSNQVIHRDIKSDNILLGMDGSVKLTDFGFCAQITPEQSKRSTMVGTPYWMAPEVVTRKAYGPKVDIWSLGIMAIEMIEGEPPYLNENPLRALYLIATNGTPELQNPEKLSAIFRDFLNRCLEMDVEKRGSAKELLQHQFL

| Compound | Ki |
| --- | --- |
| CNc1ncc2cc(-c3ccc(-c4cncc(C)n4)cc3Cl)c(=O)n(CC(=O)N3CC[C@H](N)C3)c2n1 [Example I-143, 8-[2-[(3S)-3-Aminopyrrolidin-1-yl]-2-oxo-ethyl]-6-[2-chloro-4-(6-methylpyrazin-2-yl)phenyl]-2-(methylamino)pyrido[2,3-d]pyrimidin-7-one] | 12.5 nM |
| CNc1ncc2cc(-c3ccc(-c4cncc(C)n4)cc3Cl)c(=O)n(CCNCCO)c2n1 [Example I-139, 6-[2-chloro-4-(6-methylpyrazin-2-yl)phenyl]-8-[2-(2-hydroxyethylamino)ethyl]-2-(methylamino)pyrido[2,3-d]pyrimidin-7-one] | 56 nM |
| CCc1cc(-c2cccc(C)n2)ccc1-c1cc2cnc(NC3COC3)nc2n(C[C@H]2CNCCO2)c1=O [Example I-193, 6-[2-ethyl-4-(6-methyl-2-pyridyl)phenyl]-8-[[(2R)-morpholin-2-yl]methyl]-2-(oxetan-3-ylamino)pyrido[2,3-d]pyrimidin-7-one] | 20.8 nM |
| CCNc1ncc2cc(-c3ccc(-c4cncc(C)n4)cc3Cl)c(=O)n(CCC3CNCCO3)c2n1 (single isomer, unassigned) [Example I-21] | 9.8 nM |
| CNc1ncc2cc(-c3ccc(-c4cccc(C)n4)cc3Cl)c(=O)n(CC(=O)N3CCNCC3)c2n1 [Example I-107, 6-[2-Chloro-4-(6-methyl-2-pyridyl)phenyl]-2-(methylamino)-8-(2-oxo-2-piperazin-1-yl-ethyl)pyrido[2,3-d]pyrimidin-7-one] | 14.3 nM |
| CNc1ncc2cc(-c3ccc(-c4csc(C)n4)cc3Cl)c(=O)n(C[C@H]3CNCCO3)c2n1 [Example I-182, 6-[2-chloro-4-(2-methylthiazol-4-yl)phenyl]-2-(methylamino)-8-[[(2R)-morpholin-2-yl]methyl]pyrido[2,3-d]pyrimidin-7-one] | 44.7 nM |
| CNc1ncc2cc(-c3ccc(-c4cccc(C)n4)cc3Cl)c(=O)n(CC[C@H]3OC[C@H](N)CO3)c2n1 [Example I-137, 8-[2-(5-amino-1,3-dioxan-2-yl)ethyl]-6-[2-chloro-4-(6-methyl-2-pyridyl)phenyl]-2-(methylamino)pyrido[2,3-d]pyrimidin-7-one] | 0.92 nM |
| CCNCC(O)Cn1c(=O)c(-c2ccc(-c3cncc(C)n3)cc2Cl)cc2cnc(NCC)nc21 (centres unmarked) [Example I-25, 6-[2-chloro-4-(6-methylpyrazin-2-yl)phenyl]-2-(ethylamino)-8-[3-(ethylamino)-2-hydroxy-propyl]pyrido[2,3-d]pyrimidin-7-one] | 67.1 nM |
| Cc1cccc(-c2ccc(-c3cc4cnc(NC(C)C)nc4n(CCOCCN)c3=O)c(Cl)c2)n1 [Example I-60] | 1.1 nM |
| Cc1cccc(-c2ccc(-c3cc4cnc(NC5COC5)nc4n(CCS(N)(=O)=O)c3=O)c(C)c2)n1 [Example I-166] | 17 nM |
| CCNc1ncc2cc(-c3ccc(-c4cncc(C)n4)cc3Cl)c(=O)n(CCN3CCNC(=O)C3)c2n1 [Example I-130, 6-[2-chloro-4-(6-methylpyrazin-2-yl)phenyl]-2-(ethylamino)-8-[2-(3-oxopiperazin-1-yl)ethyl]pyrido[2,3-d]pyrimidin-7-one] | 52.2 nM |
| CCNc1ncc2cc(-c3ccc(-c4cccc(C)n4)cc3C)c(=O)n(CC(=O)N3CCNCC3)c2n1 [Example I-93, 2-(Ethylamino)-6-[2-methyl-4-(6-methyl-2-pyridyl)phenyl]-8-(2-oxo-2-piperazin-1-yl-ethyl)pyrido[2,3-d]pyrimidin-7-one] | 29.1 nM |
| CNc1ncc2cc(-c3ccc(-c4cncc(C)n4)cc3Cl)c(=O)n(C[C@H]3OC[C@H](N)CO3)c2n1 [Example I-145, 8-[(5-Amino-1,3-dioxan-2-yl)methyl]-6-[2-chloro-4-(6-methylpyrazin-2-yl)phenyl]-2-(methylamino)pyrido[2,3-d]pyrimidin-7-one] | 8.54 nM |
| Cc1cccc(-c2ccc(-c3cc4cnc(NC5COC5)nc4n(CCC4CNCCO4)c3=O)c(C)c2)n1 (single isomer, unassigned) [Example I-114, 6-(2-methyl-4-(6-methylpyridin-2-yl)phenyl)-8-(2-(morpholin-2-yl)ethyl)-2-(oxetan-3-ylamino)pyrido[2,3-d]pyrimidin-7(8H)-one] | 0.7 nM |
| CNC(=O)CCCn1c(=O)c(-c2ccc(-c3cccc(C)n3)cc2C)cc2cnc(NC3COC3)nc21 [Example I-87, N-methyl-4-[6-[2-methyl-4-(6-methyl-2-pyridyl)phenyl]-2-(oxetan-3-ylamino)-7-oxo-pyrido[2,3-d]pyrimidin-8-yl]butanamide] | 30.5 nM |
| CNc1ncc2cc(-c3ccc(-c4cncc(C)n4)cc3Cl)c(=O)n(CC(=O)N3CCC[C@@H]3CN)c2n1 [Example I-153, 8-[2-[(2R)-2-(Aminomethyl)pyrrolidin-1-yl]-2-oxo-ethyl]-6-[2-chloro-4-(6-methylpyrazin-2-yl)phenyl]-2-(methylamino)pyrido[2,3-d]pyrimidin-7-one] | 8.5 nM |

| Compound | Ki |
| --- | --- |
| Cc1cccc(-c2ccc(-c3cc4cnc(NC5COC5)nc4n(CC[C@H]4OC[C@@H](N)CO4)c3=O)c(Cl)c2)n1 [Example I-135, 8-[2-(5-amino-1,3-dioxan-2-yl)ethyl]-6-[2-chloro-4-(6-methyl-2-pyridyl)phenyl]-2-(oxetan-3-ylamino)pyrido[2,3-d]pyrimidin-7-one] | 0.654 nM |
| CCNc1ncc2cc(-c3ccc(-c4cccc(C)n4)cc3C)c(=O)n(CCC3CNCCO3)c2n1 (single isomer, unassigned) [Example I-115] | 1.4 nM |
| CCNc1ncc2cc(-c3ccc(-c4cncc(C)n4)cc3Cl)c(=O)n(C(C)COC3CNC3)c2n1 (single isomer, unassigned) [Example I-118, 8-[2-(azetidin-3-yloxy)-1-methyl-ethyl]-6-[2-chloro-4-(6-methylpyrazin-2-yl)phenyl]-2-(ethylamino)pyrido[2,3-d]pyrimidin-7-one] | 18.3 nM |
| CCNc1ncc2cc(-c3ccc(-c4cncc(C)n4)cc3Cl)c(=O)n(CCCCO)c2n1 [Example I-36, 6-[2-Chloro-4-(6-methylpyrazin-2-yl)phenyl]-2-(ethylamino)-8-(4-hydroxybutyl)pyrido[2,3-d]pyrimidin-7-one] | 71.8 nM |
| CNc1ncc2cc(-c3ccc(-c4cncc(C)n4)cc3Cl)c(=O)n(CCC3OCC(N)CO3)c2n1 (centres unmarked) [Example I-37, 8-[2-(5-amino-1,3-dioxan-2-yl)ethyl]-6-[2-chloro-4-(6-methylpyrazin-2-yl)phenyl]-2-(methylamino)pyrido[2,3-d]pyrimidin-7-one] | 7.5 nM |
| CNc1ncc2cc(-c3ccc(-c4csc(C5CC5)n4)cc3Cl)c(=O)n(C[C@H]3CNCCO3)c2n1 [Example I-185, 6-[2-chloro-4-(2-cyclopropylthiazol-4-yl)phenyl]-2-(methylamino)-8-[[(2R)-morpholin-2-yl]methyl]pyrido[2,3-d]pyrimidin-7-one] | 47.3 nM |
| CNc1ncc2cc(-c3ccc(-c4cncc(C)n4)cc3Cl)c(=O)n(CCC3CCNC3=O)c2n1 (single isomer, unassigned) [Example I-102, 6-[2-Chloro-4-(6-methylpyrazin-2-yl)phenyl]-2-(methylamino)-8-[2-(2-oxopyrrolidin-3-yl)ethyl]pyrido[2,3-d]pyrimidin-7-one] | 38.1 nM |
| CNc1ncc2cc(-c3ccc(-c4cccc(C)n4)cc3Cl)c(=O)n(CC3(C#N)CCNCC3)c2n1 [Example I-169, 4-[[6-[2-chloro-4-(6-methyl-2-pyridyl)phenyl]-2-(methylamino)-7-oxo-pyrido[2,3-d]pyrimidin-8-yl]methyl]piperidine-4-carbonitrile] | 12 nM |
| CCNc1ncc2cc(-c3ccc(-c4cncc(C)n4)cc3Cl)c(=O)n(C3CCN(C(=O)CN)C3)c2n1 (centres unmarked) [Example I-28, 8-(1-(2-Aminoacetyl)pyrrolidin-3-yl)-6-(2-chloro-4-(6-methylpyrazin-2-yl)phenyl)-2-(ethylamino)pyrido[2,3-d]pyrimidin-7(8H)-one] | 25.7 nM |
| CCNc1ncc2cc(-c3ccc(-c4cncc(C)n4)cc3Cl)c(=O)n(CC(O)CN)c2n1 (centres unmarked) [Example I-24, 8-(3-amino-2-hydroxy-propyl)-6-[2-chloro-4-(6-methylpyrazin-2-yl)phenyl]-2-(ethylamino)pyrido[2,3-d]pyrimidin-7-one] | 27.3 nM |
| Cc1cccc(-c2ccc(-c3cc4cnc(NC(C)C)nc4n(C[C@H]4CC[C@H](N)CC4)c3=O)c(Cl)c2)n1 [Example I-32, 8-[(4-aminocyclohexyl)methyl]-6-[2-chloro-4-(6-methyl-2-pyridyl)phenyl]-2-(isopropylamino)pyrido[2,3-d]pyrimidin-7-one] | 0.5 nM |
| CCNc1ncc2cc(-c3ccc(-c4cccc(C)n4)cc3Cl)c(=O)n(CC(=O)N3CCNCC3)c2n1 [Example I-34, 6-[2-Chloro-4-(6-methyl-2-pyridyl)phenyl]-2-(ethylamino)-8-(2-oxo-2-piperazin-1-yl-ethyl)pyrido[2,3-d]pyrimidin-7-one] | 4 nM |
| CNc1ncc2cc(-c3ccc(-c4cncc(C)n4)cc3Cl)c(=O)n(CC(=O)N3CCC(O)C3)c2n1 (centres unmarked) [Example I-157, 6-[2-chloro-4-(6-methylpyrazin-2-yl)phenyl]-8-[2-(3-hydroxypyrrolidin-1-yl)-2-oxo-ethyl]-2-(methylamino)pyrido[2,3-d]pyrimidin-7-one] | 44.9 nM |
| CNc1ncc2cc(-c3ccc(-c4cccc(C)n4)cc3Cl)c(=O)n(C[C@@H]3CNCCO3)c2n1 [Example I-173, 6-[2-chloro-4-(6-methyl-2-pyridyl)phenyl]-2-(methylamino)-8-[[(2S)-morpholin-2-yl]methyl]pyrido[2,3-d]pyrimidin-7-one] | 12.9 nM |
| CNc1ncc2cc(-c3ccc(-c4cncc(C)n4)cc3Cl)c(=O)n(CC(=O)N[C@H]3CCNC3)c2n1 [Example I-142, 2-[6-[2-chloro-4-(6-methylpyrazin-2-yl)phenyl]-2-(methylamino)-7-oxo-pyrido[2,3-d]pyrimidin-8-yl]-N-[(3S)-pyrrolidin-3-yl]acetamide] | 14 nM |
| CCNc1ncc2cc(-c3ccc(-c4cccc(C)n4)cc3C)c(=O)n(CCOCCN)c2n1 [Example I-76, 8-[2-(2-Aminoethoxy)ethyl]-2-(ethylamino)-6-[2-methyl-4-(6-methyl-2-pyridyl)phenyl]pyrido[2,3-d]pyrimidin-7-one] | 3.3 nM |
